# Experimental data as given in article PMC9697947 (Viruses, 2022).
# What was measured:
# eHEV-3 (JE03-1760F) [1] = assay: HEV growth in PLC/PRF/5 cells inoculated with eHEV-3; type: cell-based, Hepatitis E virus genotype 3; conditions: 48 dpi
# eHEV-nanoKAZ [2] = assay: Time-of-addition: viral attachment assay (intracellular luciferase activity); type: cell-based, Hepatitis E virus; conditions: PLC/PRF/5 cells
# eHEV-4 (HE-JF5/15F) [3] = assay: HEV growth in PLC/PRF/5 cells inoculated with eHEV-4; type: cell-based, Hepatitis E virus genotype 4; conditions: 48 dpi
# eHEV-nanoKAZ [4] = assay: Time-of-addition: viral internalization assay; type: cell-based, Hepatitis E virus; conditions: PLC/PRF/5 cells
# eHEV-nanoKAZ [5] = assay: Time-of-addition: viral inactivation assay (intracellular luciferase activity); conditions: PLC/PRF/5 cells, 4 days post-inoculation
# eHEV-3 (JE03-1760F) [6] = assay: Immunofluorescence assay of HEV ORF2 protein expression in PLC/PRF/5 cells; type: cell-based, Hepatitis E virus genotype 3; conditions: day 4 post-inoculation
# eHEV-3 (JE03-1760F) [7] = assay: HEV growth in PLC/PRF/5 cells robustly producing eHEV-3; type: cell-based, Hepatitis E virus genotype 3
# eHEV-4 (HE-JF5/15F) [8] = assay: HEV growth in PLC/PRF/5 cells robustly producing eHEV-4; type: cell-based, Hepatitis E virus genotype 4
# HEV [9] = conditions: ribavirin monotherapy; undetectable serum HEV RNA at least six months after cessation; cited from earlier work
# eHEV-nanoKAZ [10] = assay: microbe, parasite or virus in culture; conditions: Hepatitis E virus, PLC-PRF-5, read-out: Inhibition (%) of intracellular luciferase activity
# HEV [11] = system: HEV; parameters: method as in ref 31 = [31]; conditions: cited from earlier work
# [12] = parameters: method as in ref 47 = [47]; conditions: Antiretroviral Pregnancy Registry (APR); cited from earlier work
# [13] = ribavirin 40 μM, mean of triplicate wells
# [14] = ribavirin 40 μM, 60 days after the start of drug treatment, mean of triplicate wells
# [15] = ribavirin alone 40 µM, day 60 after the start of drug treatment
compound,measurement,setting,value
"NC(=O)c1ncn([C@@H]2O[C@H](CO)[C@@H](O)[C@H]2O)n1 [Ribavirin, ribavirin]",Intracellular HEV RNA,eHEV-3 (JE03-1760F) [1]; [13],1.2 × 10^8 copies/well (mean)
same,HEV RNA titer in culture supernatants,eHEV-3 (JE03-1760F) [1]; ribavirin monotherapy 40 µM,2.0 × 10^7 copies/mL
same,intracellular luciferase activity,eHEV-nanoKAZ [2]; ribavirin 40 µM during attachment,did not decrease intracellular luciferase activity
same,Intracellular HEV RNA,eHEV-4 (HE-JF5/15F) [3]; [13],4.4 × 10^7 copies/well (mean)
same,HEV RNA titer in culture supernatants,eHEV-4 (HE-JF5/15F) [3]; ribavirin monotherapy 40 µM,4.3 × 10^7 copies/mL
same,intracellular luciferase activity,eHEV-nanoKAZ [4]; ribavirin 40 µM added after attachment,did not decrease intracellular luciferase activity
same,intracellular luciferase activity,eHEV-nanoKAZ [5]; ribavirin 40 µM pre-incubated with eHEV-nanoKAZ,did not decrease intracellular luciferase activity
same,expression of ORF2 protein,eHEV-3 (JE03-1760F) [6]; ribavirin 40 µM during 4 h inoculation,detectable
same,Intracellular HEV RNA,eHEV-3 (JE03-1760F) [7]; [14],1.6 × 10^7 copies/well (mean)
same,HEV RNA titer in culture supernatants,eHEV-3 (JE03-1760F) [7]; [15],2.7 × 10^6 copies/mL
same,Intracellular HEV RNA,eHEV-4 (HE-JF5/15F) [8]; [14],2.3 × 10^7 copies/well (mean)
same,HEV RNA titer in culture supernatants,eHEV-4 (HE-JF5/15F) [8]; [15],2.9 × 10^7 copies/mL
same,"sustained virological response (SVR), patients achieving",HEV [9],approximately 80%
same,inhibition at 1 µM,eHEV-nanoKAZ [10],20.4%
same,inhibition at 5 µM,eHEV-nanoKAZ [10],24.2%
same,inhibition at 10 µM,eHEV-nanoKAZ [10],33.3%
same,inhibition at 20 µM,eHEV-nanoKAZ [10],58%
same,inhibition at 40 µM,eHEV-nanoKAZ [10],79.6%
same,inhibition at 80 µM,eHEV-nanoKAZ [10],91%
"CC(C)c1nc(CN(C)C(=O)N[C@H](C(=O)N[C@@H](Cc2ccccc2)C[C@H](O)[C@H](Cc2ccccc2)NC(=O)OCc2cncs2)C(C)C)cs1 [Ritonavir, ritonavir]",intracellular luciferase activity,"eHEV-nanoKAZ [2]; ritonavir 20 µM during attachment (4 °C 1 h, 37 °C 1 h), compared to untreated control",100.4%
same,inhibition of HEV growth in cultured cells,HEV [11],potent inhibition of HEV growth in cultured cells
same,intracellular luciferase activity,"eHEV-nanoKAZ [4]; ritonavir 20 µM added after attachment, 37 °C 2 h, compared to untreated control, p = 0.0036",9.6%
same,intracellular luciferase activity,"eHEV-nanoKAZ [5]; ritonavir 20 µM pre-incubated with eHEV-nanoKAZ 1 h 37 °C, compared to untreated control",94.3%
same,risk of human teratogenicity,[12],no evidence of an increased risk of human teratogenicity
same,expression of ORF2 protein,eHEV-3 (JE03-1760F) [6]; ritonavir 20 µM during 4 h inoculation,undetectable
same,inhibition at 0.05 µM,eHEV-nanoKAZ [10],18.1%
same,inhibition at 0.1 µM,eHEV-nanoKAZ [10],29.1%
same,inhibition at 0.5 µM,eHEV-nanoKAZ [10],59.6%
same,inhibition at 1 µM,eHEV-nanoKAZ [10],71.6%
same,inhibition at 5 µM,eHEV-nanoKAZ [10],89.7%
same,inhibition at 35 µM,eHEV-nanoKAZ [10],95.9%
OC[C@H]1O[C@@](CO)(O[C@H]2O[C@H](CO)[C@@H](O)[C@H](O)[C@H]2O)[C@@H](O)[C@@H]1O [Sucrose],intracellular luciferase activity,"eHEV-nanoKAZ [4]; sucrose 250 mM added after attachment, 37 °C 2 h, compared to untreated control, p = 0.0033",14.9%
same,expression of ORF2 protein,eHEV-3 (JE03-1760F) [6]; sucrose 250 mM during 4 h inoculation,undetectable
